pIC50: −log10 of the molar value.
What was measured:
[1] = biological target: Tyrosine-protein kinase ABL2 (Homo sapiens) (UniProt P42684); experiment: Inhibition of ABL2 (unknown origin) assessed as remaining activity at 1 uM by Kinome scan method relative to control
[2] = biological target: Receptor tyrosine-protein kinase erbB-2 (Homo sapiens) (UniProt P04626); experiment: Inhibition of human ERBB2 assessed as residual activity at 1 uM using polyEY as substrate in presence of 33P-ATP by ProQinase assay relative to control
[3] = biological target: Serine/threonine-protein kinase 17B (Homo sapiens) (UniProt O94768); experiment: Inhibition of DRAK2 (unknown origin) assessed as remaining activity at 1 uM by Kinome scan method relative to control
Serine/threonine-protein kinase 17B (Homo sapiens), sequence (O94768 whole entry): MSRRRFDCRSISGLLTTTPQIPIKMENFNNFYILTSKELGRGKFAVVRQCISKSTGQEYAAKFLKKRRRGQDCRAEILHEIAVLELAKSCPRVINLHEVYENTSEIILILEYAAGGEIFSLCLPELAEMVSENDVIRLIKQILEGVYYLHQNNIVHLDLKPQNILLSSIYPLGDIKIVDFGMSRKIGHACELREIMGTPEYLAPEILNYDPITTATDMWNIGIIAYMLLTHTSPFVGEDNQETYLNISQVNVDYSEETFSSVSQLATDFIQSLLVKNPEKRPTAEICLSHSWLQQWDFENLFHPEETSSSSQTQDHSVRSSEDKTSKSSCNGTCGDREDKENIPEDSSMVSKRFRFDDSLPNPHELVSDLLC

[4] = biological target: Cyclin-dependent kinase 2/cyclin E1 (Homo sapiens) (UniProt P24864+P24941); experiment: Inhibition of human CDK2/CycE1 assessed as residual activity at 1 uM using RBER-CHKtide as substrate in presence of 33P-ATP by ProQinase assay relative to control; format: protein-complex assay
[5] = biological target: Phosphorylase b kinase gamma catalytic chain, skeletal muscle/heart isoform (Homo sapiens) (UniProt Q16816); experiment: Inhibition of human PHKG1 assessed as residual activity at 1 uM using 3xChocktide-PKC as substrate in presence of 33P-ATP by ProQinase assay relative to control
Phosphorylase b kinase gamma catalytic chain, skeletal muscle/heart isoform (Homo sapiens), sequence (Q16816 whole entry, looked up, canonical isoform): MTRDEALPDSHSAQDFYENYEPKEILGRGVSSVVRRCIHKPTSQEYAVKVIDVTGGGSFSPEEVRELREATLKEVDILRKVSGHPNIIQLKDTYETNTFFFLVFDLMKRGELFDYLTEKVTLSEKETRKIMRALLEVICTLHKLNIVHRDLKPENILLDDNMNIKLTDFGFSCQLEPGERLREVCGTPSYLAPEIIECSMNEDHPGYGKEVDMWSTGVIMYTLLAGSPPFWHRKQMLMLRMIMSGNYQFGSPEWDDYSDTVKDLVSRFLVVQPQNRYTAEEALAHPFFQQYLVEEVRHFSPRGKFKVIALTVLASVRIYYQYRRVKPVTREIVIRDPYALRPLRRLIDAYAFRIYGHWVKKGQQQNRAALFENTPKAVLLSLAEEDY

[6] = system: Tyrosine-protein kinase ABL1 (Homo sapiens), P00519 [M351T]; experiment: Inhibition of human ABL1 M351T mutant assessed as residual activity at 1 uM using Poly(Ala,Glu,Lys,Tyr)6:2:5:1 as substrate in presence of 33P-ATP by ProQinase assay relative to control
[7] = biological target: Dual specificity tyrosine-phosphorylation-regulated kinase 3 (Homo sapiens) (UniProt O43781); experiment: Inhibition of human DYRK3 assessed as residual activity at 1 uM using RBER-IRStide as substrate in presence of 33P-ATP by ProQinase assay relative to control
Dual specificity tyrosine-phosphorylation-regulated kinase 3 (Homo sapiens), sequence (O43781 whole entry): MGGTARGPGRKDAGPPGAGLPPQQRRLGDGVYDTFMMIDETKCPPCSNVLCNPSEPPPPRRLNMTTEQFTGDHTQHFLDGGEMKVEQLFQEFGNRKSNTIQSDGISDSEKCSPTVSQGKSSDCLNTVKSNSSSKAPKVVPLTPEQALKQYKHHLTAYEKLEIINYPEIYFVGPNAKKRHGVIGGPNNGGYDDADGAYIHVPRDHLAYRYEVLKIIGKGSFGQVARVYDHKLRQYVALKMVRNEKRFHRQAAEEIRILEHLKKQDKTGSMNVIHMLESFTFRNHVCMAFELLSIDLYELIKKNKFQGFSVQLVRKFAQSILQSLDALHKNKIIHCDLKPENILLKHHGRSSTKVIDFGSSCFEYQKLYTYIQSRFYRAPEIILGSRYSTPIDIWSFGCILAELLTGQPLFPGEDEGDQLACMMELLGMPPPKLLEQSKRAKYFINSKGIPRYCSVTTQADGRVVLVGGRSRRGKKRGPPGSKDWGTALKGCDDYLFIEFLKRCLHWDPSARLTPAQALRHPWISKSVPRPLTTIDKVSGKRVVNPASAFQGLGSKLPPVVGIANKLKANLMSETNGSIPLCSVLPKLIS

[8] = biological target: Proto-oncogene tyrosine-protein kinase Src (Homo sapiens) (UniProt P12931); experiment: Inhibition of SRC (unknown origin) assessed as remaining activity at 1 uM by Kinome scan method relative to control
Proto-oncogene tyrosine-protein kinase Src (Homo sapiens), sequence (P12931 2-536 limits assumed): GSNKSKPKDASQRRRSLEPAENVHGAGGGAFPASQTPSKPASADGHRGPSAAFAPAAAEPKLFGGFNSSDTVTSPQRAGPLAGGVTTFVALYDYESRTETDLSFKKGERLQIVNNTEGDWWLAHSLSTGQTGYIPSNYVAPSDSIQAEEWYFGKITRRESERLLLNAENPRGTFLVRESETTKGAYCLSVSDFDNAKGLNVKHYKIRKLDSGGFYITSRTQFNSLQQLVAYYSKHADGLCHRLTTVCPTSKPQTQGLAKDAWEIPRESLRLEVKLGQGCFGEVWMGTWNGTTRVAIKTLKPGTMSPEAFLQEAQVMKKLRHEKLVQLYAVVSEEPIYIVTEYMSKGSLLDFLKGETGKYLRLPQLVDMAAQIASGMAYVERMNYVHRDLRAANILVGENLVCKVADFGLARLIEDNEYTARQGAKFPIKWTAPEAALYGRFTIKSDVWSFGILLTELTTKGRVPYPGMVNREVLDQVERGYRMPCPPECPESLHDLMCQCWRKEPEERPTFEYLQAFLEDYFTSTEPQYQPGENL

[9] = biological target: Serine/threonine-protein kinase mTOR (Homo sapiens) (UniProt P42345); experiment: Inhibition of human mTOR assessed as residual activity at 1 uM using casein as substrate in presence of 33P-ATP by ProQinase assay relative to control
[10] = biological target: Atypical kinase COQ8B, mitochondrial (Homo sapiens) (UniProt Q96D53); experiment: Inhibition of ADCK4 (unknown origin) assessed as remaining activity at 1 uM by Kinome scan method relative to control
Atypical kinase COQ8B, mitochondrial (Homo sapiens), sequence (Q96D53 whole entry): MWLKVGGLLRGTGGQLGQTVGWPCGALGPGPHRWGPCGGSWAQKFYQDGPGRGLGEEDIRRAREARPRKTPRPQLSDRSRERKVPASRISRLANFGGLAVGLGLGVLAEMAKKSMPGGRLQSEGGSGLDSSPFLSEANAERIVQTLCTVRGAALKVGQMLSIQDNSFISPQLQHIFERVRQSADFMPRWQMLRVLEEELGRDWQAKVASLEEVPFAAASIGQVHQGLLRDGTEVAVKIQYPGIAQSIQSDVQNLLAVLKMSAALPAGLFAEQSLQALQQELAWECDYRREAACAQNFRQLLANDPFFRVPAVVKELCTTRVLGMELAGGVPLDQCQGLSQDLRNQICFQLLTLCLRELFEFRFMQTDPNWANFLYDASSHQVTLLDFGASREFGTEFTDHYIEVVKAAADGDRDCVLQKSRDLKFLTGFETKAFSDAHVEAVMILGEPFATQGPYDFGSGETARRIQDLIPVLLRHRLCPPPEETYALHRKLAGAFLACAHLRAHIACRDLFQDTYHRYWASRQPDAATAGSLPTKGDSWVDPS

[11] = biological target: Serine/threonine-protein kinase WNK2 (Homo sapiens) (UniProt Q9Y3S1); experiment: Inhibition of human WNK2 assessed as residual activity at 1 uM using RBER-CHKtide as substrate in presence of 33P-ATP by ProQinase assay relative to control
[12] = biological target: Serine/threonine-protein kinase ULK2 (Homo sapiens) (UniProt Q8IYT8); experiment: Inhibition of ULK2 (unknown origin) assessed as remaining activity at 1 uM by Kinome scan method relative to control
[13] = biological target: T1, Aurora kinase A (Homo sapiens) (UniProt O14965); experiment: Inhibition of human AuroraA assessed as residual activity at 1 uM using bio-4xCHKT as substrate in presence of 33P-ATP by ProQinase assay relative to control
T1 sequence (whole entry): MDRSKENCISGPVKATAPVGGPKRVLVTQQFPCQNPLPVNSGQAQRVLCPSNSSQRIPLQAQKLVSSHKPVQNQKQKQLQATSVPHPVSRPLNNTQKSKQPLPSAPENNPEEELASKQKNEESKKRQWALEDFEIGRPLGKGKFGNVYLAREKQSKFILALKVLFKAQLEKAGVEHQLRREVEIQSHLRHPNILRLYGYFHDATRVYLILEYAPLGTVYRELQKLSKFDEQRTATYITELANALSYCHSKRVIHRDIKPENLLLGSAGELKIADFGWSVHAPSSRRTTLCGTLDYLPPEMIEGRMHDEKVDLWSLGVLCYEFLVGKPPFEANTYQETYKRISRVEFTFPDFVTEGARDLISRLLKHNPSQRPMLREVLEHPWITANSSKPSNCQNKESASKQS

[14] = Anti-inflammatory activity against human derived medium respond PBMC cells assessed as inhibition in stimulated IL-10 cytokine release incubated for 2 hrs in the presence of LPS/SEB/aCD28 by Luminex based sandwich immunoassay; format: functional, cell-based
[15] = Anti-inflammatory activity against human derived medium respond PBMC cells assessed as inhibition in stimulated IL-1beta cytokine release incubated for 2 hrs in the presence of LPS/SEB/aCD28 by Luminex based sandwich immunoassay; format: functional, cell-based
[16] = system: Serine/threonine-protein kinase B-raf (Homo sapiens), P15056 [V600E]; experiment: Inhibition of human BRAF V600E mutant assessed as residual activity at 1 uM using MEK1-K97M as substrate in presence of 33P-ATP by ProQinase assay relative to control
Serine/threonine-protein kinase B-raf (Homo sapiens), P15056 [V600E], sequence (P15056 whole entry V600E): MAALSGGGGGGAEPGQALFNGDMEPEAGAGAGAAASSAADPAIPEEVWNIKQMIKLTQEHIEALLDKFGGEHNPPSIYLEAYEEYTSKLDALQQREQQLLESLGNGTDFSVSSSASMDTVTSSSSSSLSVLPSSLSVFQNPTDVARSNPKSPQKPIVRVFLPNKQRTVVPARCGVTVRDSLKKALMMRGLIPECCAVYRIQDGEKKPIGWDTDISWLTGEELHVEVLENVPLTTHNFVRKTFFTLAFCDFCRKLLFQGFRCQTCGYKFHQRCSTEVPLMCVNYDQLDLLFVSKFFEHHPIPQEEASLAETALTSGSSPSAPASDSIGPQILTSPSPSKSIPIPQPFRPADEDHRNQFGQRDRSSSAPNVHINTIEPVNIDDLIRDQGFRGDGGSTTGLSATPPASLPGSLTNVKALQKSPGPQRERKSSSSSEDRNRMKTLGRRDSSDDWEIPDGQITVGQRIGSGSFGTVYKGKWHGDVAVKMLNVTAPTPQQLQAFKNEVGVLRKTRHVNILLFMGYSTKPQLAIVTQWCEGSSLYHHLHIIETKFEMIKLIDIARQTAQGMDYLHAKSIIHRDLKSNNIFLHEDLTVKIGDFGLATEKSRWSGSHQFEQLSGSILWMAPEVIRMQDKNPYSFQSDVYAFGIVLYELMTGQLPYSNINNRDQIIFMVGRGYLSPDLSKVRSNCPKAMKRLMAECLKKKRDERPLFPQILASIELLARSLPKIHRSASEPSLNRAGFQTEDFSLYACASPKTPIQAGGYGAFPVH

[17] = biological target: T2, Calcium/calmodulin-dependent protein kinase type IV (Homo sapiens) (UniProt Q16566); experiment: Inhibition of human CAMK4 assessed as residual activity at 1 uM using JUN as substrate in presence of 33P-ATP by ProQinase assay relative to control
T2 sequence (whole entry): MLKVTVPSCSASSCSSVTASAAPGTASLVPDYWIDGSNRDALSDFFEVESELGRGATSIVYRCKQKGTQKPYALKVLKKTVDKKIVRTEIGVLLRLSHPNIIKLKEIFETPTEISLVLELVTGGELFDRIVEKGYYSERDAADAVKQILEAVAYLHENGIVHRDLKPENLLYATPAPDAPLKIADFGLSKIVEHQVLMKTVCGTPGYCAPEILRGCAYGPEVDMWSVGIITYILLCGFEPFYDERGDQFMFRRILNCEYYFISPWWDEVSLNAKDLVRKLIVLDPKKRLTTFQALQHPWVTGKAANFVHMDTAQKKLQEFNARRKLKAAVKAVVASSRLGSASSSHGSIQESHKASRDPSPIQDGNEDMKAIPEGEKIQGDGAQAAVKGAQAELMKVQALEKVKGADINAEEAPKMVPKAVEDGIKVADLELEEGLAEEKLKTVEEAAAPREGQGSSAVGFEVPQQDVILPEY

[18] = biological target: MAP kinase-activated protein kinase 2 (Homo sapiens) (UniProt P49137); experiment: Inhibition of human MAPKAPK2 assessed as residual activity at 1 uM using RBER-CHKtide as substrate in presence of 33P-ATP by ProQinase assay relative to control
MAP kinase-activated protein kinase 2 (Homo sapiens), sequence (P49137 whole entry, looked up): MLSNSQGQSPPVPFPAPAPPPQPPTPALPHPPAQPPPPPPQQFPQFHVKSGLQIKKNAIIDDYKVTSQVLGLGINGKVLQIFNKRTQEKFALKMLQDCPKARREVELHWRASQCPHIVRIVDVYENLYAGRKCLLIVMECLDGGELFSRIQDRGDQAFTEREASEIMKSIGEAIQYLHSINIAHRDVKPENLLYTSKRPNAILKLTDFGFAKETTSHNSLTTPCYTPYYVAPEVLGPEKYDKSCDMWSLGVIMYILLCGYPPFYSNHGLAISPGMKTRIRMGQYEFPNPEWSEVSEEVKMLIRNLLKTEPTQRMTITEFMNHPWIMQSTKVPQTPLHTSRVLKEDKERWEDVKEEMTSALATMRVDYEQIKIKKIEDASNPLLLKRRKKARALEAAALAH

[19] = biological target: Hepatocyte growth factor receptor (Homo sapiens) (UniProt P08581); experiment: Inhibition of human MET assessed as residual activity at 1 uM using poly(Ala,Glu,Lys,Tyr)6:2:5:1 as substrate in presence of 33P-ATP by ProQinase assay relative to control
[20] = biological target: Epidermal growth factor receptor (Homo sapiens) (UniProt P00533); experiment: Inhibition of human EGFR assessed as residual activity at 1 uM using PolyEY as substrate in presence of 33P-ATP by ProQinase assay relative to control

Tyrosine-protein kinase ABL2 (Homo sapiens), sequence (P42684 whole entry): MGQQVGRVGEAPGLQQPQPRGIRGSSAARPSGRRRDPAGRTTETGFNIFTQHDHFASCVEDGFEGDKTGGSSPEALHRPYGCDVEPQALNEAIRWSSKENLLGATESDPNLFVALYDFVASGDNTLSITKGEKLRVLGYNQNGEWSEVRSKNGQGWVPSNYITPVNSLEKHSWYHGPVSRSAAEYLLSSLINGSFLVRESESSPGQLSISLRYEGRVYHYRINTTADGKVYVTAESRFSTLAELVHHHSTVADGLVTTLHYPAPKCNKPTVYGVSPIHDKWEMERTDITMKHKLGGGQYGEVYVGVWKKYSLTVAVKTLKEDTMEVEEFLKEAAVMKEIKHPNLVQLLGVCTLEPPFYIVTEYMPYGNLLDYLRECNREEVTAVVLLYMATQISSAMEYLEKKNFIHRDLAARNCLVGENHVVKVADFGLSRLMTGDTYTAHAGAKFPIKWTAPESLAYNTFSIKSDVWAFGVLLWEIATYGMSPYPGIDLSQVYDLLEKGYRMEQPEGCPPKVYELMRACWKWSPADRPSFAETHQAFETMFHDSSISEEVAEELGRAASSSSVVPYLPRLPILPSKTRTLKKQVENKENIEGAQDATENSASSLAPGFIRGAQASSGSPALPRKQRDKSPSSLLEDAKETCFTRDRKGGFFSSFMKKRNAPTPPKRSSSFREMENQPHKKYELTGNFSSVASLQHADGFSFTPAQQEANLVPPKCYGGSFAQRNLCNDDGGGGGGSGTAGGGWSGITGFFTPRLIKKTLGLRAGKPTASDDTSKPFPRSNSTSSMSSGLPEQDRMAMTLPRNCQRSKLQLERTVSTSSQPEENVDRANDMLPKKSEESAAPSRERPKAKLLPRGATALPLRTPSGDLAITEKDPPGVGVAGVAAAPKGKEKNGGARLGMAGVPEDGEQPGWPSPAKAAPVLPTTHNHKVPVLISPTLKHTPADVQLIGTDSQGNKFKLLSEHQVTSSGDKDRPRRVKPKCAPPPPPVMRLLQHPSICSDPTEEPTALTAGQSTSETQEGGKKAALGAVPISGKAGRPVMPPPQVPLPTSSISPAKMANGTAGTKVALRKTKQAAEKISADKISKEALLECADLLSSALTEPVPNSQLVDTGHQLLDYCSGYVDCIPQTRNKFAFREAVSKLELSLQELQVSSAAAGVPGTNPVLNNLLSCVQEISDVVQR

SMILES: O=C1c2ccc(Nc3ccc(F)cc3F)cc2CCc2ccc(OC[C@H](O)CO)cc21 [Skepinone-L]
- Activity [1]: 100%
- Activity [2]: 91%
- Activity [3]: 99%
- Activity [4]: 85%
- Activity [5]: 93%
- Activity [6]: 102%
- Activity [7]: 98%
- Activity [8]: 100%
- Activity [9]: 97%
- Activity [10]: 100%
- Activity [11]: 95%
- Activity [12]: 100%
- Activity [13]: 99%
- pIC50 [14]: 7.22
- pIC50 [15]: 5.80
- Activity [16]: 135%
- Activity [17]: 111%
- Activity [18]: 80%
- Activity [19]: 108%
- Activity [20]: 94%
